Entries after “also recorded” stand apart in the source; their conditions may differ.
Tests used:
NO production in HUVEC = test: Nitrite (NO) production in HUVEC, capillary detection method; assay type: cell-based, human
Method: Nitrite production was measured using capillary detection method (Leone et al, in Methods in Nitric Oxide Research, Feelisch and Stanler, eds. John Wiley & Sons, New York (1996) 499-508).

[1] = test system: 205 kD protein corresponding to VEGF receptor; test: Anti-phosphotyrosine immunoprecipitation/immunoblot in HUVEC; assay type: cell-based, human; details: 100 μM L-NAME 1 h pretreatment; 10 ng/ml VEGF 10 min
Method: In some experiments, cells were pretreated for 1 h with 100 μM L-NAME and subsequently treated either with or without. […] The medium was removed and cells were rapidly lysed at 4° C. by addition of 10 mM Tris/HCl (pH 7.6), 5 mM EDTA, 50 mM NaCl, 30 mM sodium pyrophosphate, 50 mM NaF, 0.1 mM Na3VO4, 1 mM PMSF and 1% Triton X-100 (lysis buffer). Lysates were clarified by centrifugation at 15000×g for 10 min, and immunoprecipitations were performed by incubating clarified lysates with PY20 anti-phosphotyrosine mAb for 2 h at […] Immunoprecipitates were collected by incubating lysates for a further 1 hour with protein A-agarose. Immunoprecipitates were washed three times with lysis buffer and proteins were then extracted with 2×SDS-PAGE sample buffer. After SDS-PAGE, immunoprecipitated proteins were transferred to membranes and then immunoblotted with PY20 mAb.

[2] = test system: carotid arteries (intimal thickening); test: Collar-induced intimal thickening in rabbit carotid arteries after adventitial plasmid/liposome gene transfer; assay type: in vivo, New Zealand White rabbits; details: L-NAME 70 mg/kg/d in drinking water; 7 days after gene transfer
From the text: The model preserved EC integrity and permitted direct extravascular gene transfer without any intravascular manipulation.
Gene Transfer: Intimal thickening was induced in the carotid arteries of thirty-two New Zealand White rabbits by inserting an inert silicone collar around the arteries under a general anaesthesia (Booth et al, Atherosclerosis (1989) 76:257-268). […] No intravascular manipulations were involved in any steps of the studies. […] Plasmids used for the studies were isolated from E. coli cultures (DH5α) using Qiagen Mega columns and purified using three phenol/chloroform extractions and one ethanol precipitation (Ausubel et al, eds. Current Protocols in Molecular Biology. New York, N.Y.: Greene Publishing Associates and John Wiley & Sons (1991) 4.2.3-4.2.4) were adjusted to 1 μg/μl and analysed to be free of any microbiological or endotoxin contamination (Limulus assay, detection limit 0.2 ng). […] Differences in the intima/media thickness ratios between the groups were analysed by ANOVA, followed by modified t-test (*p<0.05). […]
Gene transfer was carried out as described in Example 1.1. […] Animals were sacrificed 7 days after gene transfer and analysed for the intima/media thickness ratio and histology as described above (Ylä-Herttuala et al, Arteriosclerosis (1986) 6: 230-236; Ylä-Herttuala et al (1990) supra). […]

COC(=O)[C@@H](N)CCCNC(=N)N[N+](=O)[O-] [L-NAME]
effect of L-NAME on VEGF-induced NO production (NO production in HUVEC; 100 μM L-NAME): completely abolished
nitrite production level after L-NAME (NO production in HUVEC; L-NAME 100 μM pretreatment 1 hour, then 25 ng/ml VEGF 10 minutes): ~17 µM
effect of L-NAME on VEGF-induced phosphorylation [1]: abolishes the response to VEGF; also recorded: completely abolished
effect of L-NAME on the difference in intimal thickening between VEGF- and lacZ-transfected arteries [2]: abolished

— patent US7320679B2, “Therapeutic use of growth factor, and delivery device, especially for the treatment of intimal hyperplasia” (Ark Therapeutics, Ltd., priority 1996, dated 2008)
